According to US20260091012A1, “Methods Of Treating Meduloblastoma With Thyroid Hormone” (Institute For Cancer Research d/b/a The Research Institute …, priority 2022, published 2026):

Tests used:
[1] = test system: Math1-Cre/Ptch1^fl/fl tumor mice; test: Survival and tumor markers in Math1-Cre/Ptch1fl/fl tumor mice; type: in vivo, mouse
Description: (§1) Math1-Cre mice, Ptch1^fl/fl mice, R26-SmoM2 mice, Math1-CreER mice, CAG-Cas9 mice and were purchased from the Jackson Laboratory. All mice were bred and genotyped as recommended by the Jackson Laboratory. CB17/SCID mice were bred in the Fox Chase Cancer Center Laboratory Animal Facility (LAF).
(§2) GDC0449 (50 mg/kg) diluted using MCT and administrated to mice by oral gavage once a day. […] Log-rank survival analyses were performed in GraphPad Prism 9.

[2] = test system: Shh type PDX-luciferase cells; test: Human shh type MB PDX-luciferase growth in cerebellum of SCID mice (bioluminescence); type: in vivo; conditions: SCID mice treated by T3 for 3 weeks vs untreated controls
Description: as §2
(§3) MB cells were stereotaxically injected into the cerebellum of 6- to 8-week-old SCID mice. Before transplantation, MB cells were infected with lentivirus carrying firefly luciferase for 24 hours. For transplantation with MB cells after the virus infection, the cell suspension was centrifuged at 1000 rpm for 5 minutes to remove the supernatant. 1×10^6 cells (based on Trypan blue staining) were injected into the cerebellum of each mouse. Animals were monitored weekly using in vivo bioluminescence imaging.

SmoM2 tumor mice = test: Survival and tumor markers in SmoM2 tumor mice; type: in vivo, mouse
Description: as §1, §2
Conversely, pHH3, a cell proliferation maker, was decreased in T3-treated mice tumor tissues (see, FIG. 5, Panel B).

[3] = test system: MB cells isolated from Math1-Cre/Ptch1^fl/fl tumor mice; test: Cell Counting Kit-8 (CCK8) assay of MB cells, T3 and cisplatin; type: cell-based, mouse
Description: MB cells were treated with vehicle (DMSO) as a control. […] The survival of MB cells was measured by Cell Counting Kit-8 (CCK8) following the treatment.

D341 = test: EdU incorporation, proliferation of human MB group3 cell line D341; type: cell-based; conditions: D341, T3, 72 hours
From the text: (§4) MB cells were isolated from Math1-Cre/Ptch1^fl/fl, Math1-Cre/Ptch1^fl/fl/Cas9 and SmoM2 tumor-bearing mice at 6 to 8 weeks of age, respectively. Tumor tissue was dissociated in a papain solution to obtain a single-cell suspension and then centrifuged through a 35% and 65% Percoll gradient. Cells from the 35% to 65% interface were suspended in Dulbecco's PBS (DPBS) plus 0.5% BSA. Cells were then suspended in NB-B22 (B22 supplement followed protocol in Jacob Hanna's lab) and plated on poly-D-lysine (PDL)-coated coverslips (BD Biosciences). D283, D341 and MB-shh cell lines were cultured in DMEM with 10% fetal bovine serum, 1% Pen/Strep and 2 mM L-glutamine (Invitrogen).
(§5) The EdU incubated cells were cultured at 1 μM in culture medium for 1 hour. 4% PFA was used to fix the cells for 10 minutes. The cells were incubated with the staining solution for 20 minutes in the dark. The cells were washed with PBST for 5 minutes/time for 3 times.
(§6) The percentage of EdU+ cells in the culture was quantified (see, FIG. 6, Panel A). […] The percentage of EdU+ cells in the culture was quantified (see, FIG. 6, Panel B). […] The percentage of EdU+ cells in the culture were quantified (see, FIG. 6, Panel C). […] Thus, thyroid hormone may be used to treat different type of medulloblastoma.

MB cells = test: Immunostaining of differentiation marker MAP2 in MB cells; type: cell-based, mouse; conditions: MB cells treated by T3 for 48 hours
Description: Immunofluorescent staining of cells was carried out according to standard methods. Briefly, cells were blocked and permeabilized for 1 hour with PBS containing 0.1% Triton X-100 and 10% normal goat serum, stained with primary antibodies (1:400) overnight at 4° C. and incubated with secondary antibodies (1:500) for 1 hour. Cells were counterstained with DAPI and mounted with Fluoromount-G (Southern Biotech) before being visualized using a Nikon Eclipse Ti microscope.

MB ptch−/− cells = test: EdU incorporation, proliferation of MB ptch−/− cells; type: cell-based, mouse; conditions: NB-B22 cultured MB ptch−/− cells, different concentrations of T3, 48 hours; inhibition concentration dependent
From the text: as §4, §2, §5
The inhibition was concentration dependent. The percentage of EdU+ cells in the culture were quantified (see, FIG. 1, Panel B). DAPI was used to counterstain cell nuclei.

D283 = test: EdU incorporation, proliferation of human MB group3 cell line D283; type: cell-based; conditions: D283, T3, 72 hours
From the text: as §4, §5, §6

RCMB28 cells = test system: RCMB28 cells
Description: as §2, §3
G3-MB PDOXs were generated by intracranial transplantation of RCMB28 cells transduced with a luciferase expressing construct.

Group3 (Ms)MB cells = test: EdU incorporation, proliferation of MB group3 (Mouse) cells; type: cell-based; conditions: T3, 72 hours
Description: as §5, §6

[4] = T3 200 ng/g i.p. twice a day vs without T3
[5] = T3-treated mice, immunohistochemistry

| Structure (SMILES) | mice survival [1, 4] | tumor progression in vivo ([1]; T3-treated mice) | NeuN (differentiation marker) expression in tumor tissues [1, 5] | pHH3 (cell proliferation marker) in tumor tissues [1, 5] | MB growth (in vivo bioluminescence) [2] | mice survival (SmoM2 tumor mice; [4]) | NeuN (differentiation marker) expression in tumor tissues (SmoM2 tumor mice; [5]) | pHH3 (cell proliferation marker) in tumor tissues (SmoM2 tumor mice; [5]) | MB cell proliferation (CCK8) ([3]; T3 alone at two concentrations vs vehicle (DMSO)) | proliferation of group3 tumor cells (percentage of EdU+ cells) (D341) | MAP2 expression (differentiation marker) (MB cells) | proliferation of medulloblastoma cells (percentage of EdU+ cells) (MB ptch−/− cells) | proliferation of group3 tumor cells (percentage of EdU+ cells) (D283) | survival of recipient mice (RCMB28 cells; T3 i.p. compared with PBS treatment, p<0.01) | tumor progression in recipient mice (RCMB28 cells; T3 i.p. vs PBS, after tumors were established) | median survival (RCMB28 cells; T3 i.p., PBS treatment 15 days, p<0.01) | proliferation of group3 tumor cells (percentage of EdU+ cells) (Group3 (Ms)MB cells) | cell proliferation / survival of MB cells (CCK8) ([3]; cisplatin alone at seven different concentrations vs vehicle (DMSO)) |
| --- | --- | --- | --- | --- | --- | --- | --- | --- | --- | --- | --- | --- | --- | --- | --- | --- | --- | --- |
| N[C@@H](Cc1cc(I)c(Oc2ccc(O)c(I)c2)c(I)c1)C(=O)O [T3, triiodothyronine] | prolonged | repressed tumor progression | enhanced expression | decreased | significantly inhibited | prolonged | enhanced expression | decreased | decreased | significantly inhibited | increased | significantly inhibited | significantly inhibited | significantly prolonged | significantly repressed | undefined | significantly inhibited | – |
| N.N.[Cl][Pt][Cl] [cisplatin] | – | – | – | – | – | – | – | – | – | – | – | – | – | – | – | – | – | inhibited cell proliferation significantly except 31.23 nM and 62.5 nM |
